Assay results as given in patent US7344851B2, “Anticancer agents based on prevention of protein prenylation” (Arizona Biomedical Research Commission, priority 1998, dated 2008).
Blank lines part the entries; values can stand above or below the compound they belong to.

What was measured:
Type in all cases: biochemical
[1] = molecular target: T1, human recombinant FTase (Homo sapiens, UniProt P49354+P49356); test: FTase inactivation, fluorescence assay of farnesylation of Ds-GCVLS after preincubation with inactivator
T1 construct: gift from Professor Patrick Casey, Duke University

[2] = molecular target: T1, human recombinant FTase; test: as above; details: for inactivation of FTase (result in words): preincubation of FTase with compound, fluorescence assay
Procedure: For example, the catalytic ability of FTase was monitored by an assay procedure in which FTase transferred the farnesyl group from FPP to a peptide substitute for Ras. The peptide substitute for Ras in this assay had structural elements in common with Ras, in particular a sequence of four amino acids cysteinyl-valyl-lysyl-serine (cys-val-lys-ser).
Inactivation of the enzyme FTase occurred when the FTase was preincubated with phenylglyoxal monohydrate, as evidenced by (1) a decrease in enzyme activity with increasing time of preincubation with phenylglyoxal monohydrate; and (2) a decrease in enzyme activity with increasing concentration of phenylglyoxal monohydrate. Because of interference of phenylglyoxal monohydrate with the fluorescence assay used, phenylglyoxal monohydrate was removed from the FTase preincubation mixture by ultrafiltration prior to the assay being performed.
FTase assay The fluoresence assay conditions were adapted from a published method. The FTase assay consisted of the measurement of the rate of FTase-catalyzed farnesylation of the fluorescent pentapeptide Ds-GCVLS. Upon farnesylation of the cysteine, the fluoresence emission at =505 nm of the dansyl group is enhanced due to the proximity of the hydrophobic isoprenoid group. Enzyme activity (approximately 60 nM FTase) was monitored at saturating substrate concentrations (10 M farnesyl pyrophosphate, ammonium salt, prepared by successive dilutions of a commercial 2.3 mM solution in methanol:10 mM aqueous NH4OH (7:3) into assay buffer, and 1.0 M Ds-GCVLS) by measurement of the increase in fluorescence emission observed at =505 nm as FTase farnesylated Ds-GCVLS for a period of 10 min. The assay buffer was selected for unreactivity toward PGO: 50 mM NaHEPES, 5 mM DTT, 5 mM MgCl2, 10 μM ZnCl2, and 0.2% n-octyl-β-D-glucopyranoside, pH 7.5. Fluorescence emission was measured with a JASCO FP-77 spectrofluorimeter fitted with a temperature-controlled cuvette holder connected to a 30 C. constant temperature bath. All fluoresence assays were conducted in a 4 mm 4 mm quartz cuvette with excitation at 340 nm.
Inactivation of FTase by PGO FTase was incubated at 30 C in the presence and absence of PGO at various concentrations in 50 mM NaHEPES, 5 mM MgCl2, 10 μM ZnCl2, and 0.2% n-octyl-β-D-glucopyranoside, pH 7.5 (i.e., assay buffer without DTT). Periodically, aliquots of the FTase-PGO reaction mixture were removed and assayed for FTase activity. Because of interference of PGO with the fluorometric assay, the aliquot was first subjected to solvent exchange by size exclusion membrane concentration to remove PGO. The solvent exchange utilized Microcon (Millipore Co.) 30 kD molecular weight cutoff microconcentrators. This also served to stop further inactivation of the enzyme by PGO. A 100-L aliquot of FTase-PGO reaction mixture was pipetted into a Microcon concentrator, which was centrifuged at 12,000 RPM for 8 min at 4 C. The concentrate was resuspended in […] of assay buffer, and centrifugation was repeated. The final concentrate was resuspended in 90 L of assay buffer, and the resulting solution was recovered by inversion of the concentrator and centrifugation at 3500 RPM for 3 min at 4 C. The solution was then assayed for FTase activity as described above. A control was handled as above, except that PGO was omitted from the incubation mixture.

[3] = molecular target: T1, human recombinant FTase; test: FPP protection of FTase against inactivation by PGO; details: FPP at various concentrations 2 min, then 10 mM PGO for 30 min at 30° C.; FIG. 3
Procedure: FIG. 3. Farnesyl pyrophosphate protection of FTase from inactivation by PGO. Points are determined by 100×(FTase activity after incubation with FPP and PGO)/(FTase activity after incubation with FPP without PGO). Assays were carried out after removal of FPP and PGO with a high molecular weight cutoff microconcentrator. Each point is the average of duplicate determinations.
FPP protection of FTase against inactivation by PGO FTase was treated with FPP at various concentrations in assay buffer without DTT for 2 min at 30° C. prior to incubation of the mixture with 10 mM PGO for 30 min at 30° C. The control was incubated with FPP at the corresponding concentration for the full length of time, but without PGO. The mixtures were subsequently subjected to microconcentration and assay, as described above.

- rate of inactivation of FTase ([1]; 5 mM PGO, FIG. 2): the rate of inactivation was reduced
- FTase activity following preincubation with inactivator ([2]; 10 mM PGO for 10 min, PGO removed by microconcentrator, FIG. 1): virtual absence of enzyme activity
- rate of inactivation of FTase ([2]; 10 mM PGO, compared with 20 mM, FIG. 2): slower but still quite rapid
- inactivation of FTase (result in words) ([2]; monohydrate): rapidly inactivated
Structure (SMILES): O=CC(=O)c1ccccc1 [PGO, phenylglyoxal monohydrate]
- effect of preincubation of FTase with FPP on inactivation by PGO [3]: decreased the ability of PGO to inactivate FTase
- inactivation of FTase (result in words) ([2]; listed as phenylglyoxal monohydrate, monohydrate): rapid and virtually complete inactivation

- FTase activity, % of the initial control value ([1]; 23 μM, 30 minutes of incubation, FTase 15 nM, 4.6% DMSO): 68%
- FTase activity, % of the initial control value ([1]; 93 μM, 30 minutes of incubation, FTase 15 nM, 4.6% DMSO): 11%
- inactivation of FTase (result in words) [2]: rapidly inactivated FTase
Structure (SMILES): O=CC(=O)c1ccc(-c2ccc(C(=O)C=O)cc2)cc1 [4,4′-biphenyldiglyoxaldehyde]

- FTase activity, % of the initial control value ([1]; 17 μM, 30 minutes of incubation, FTase 15 nM, 4.6% DMSO, Microcon step omitted): 38%
- FTase activity, % of the initial control value ([1]; 68 μM, 30 minutes of incubation, FTase 15 nM, 4.6% DMSO, Microcon step omitted): 18%
- FTase activity, % of the initial control value ([1]; 171 μM, 30 minutes of incubation, FTase 15 nM, 4.6% DMSO, Microcon step omitted): 16%
- inactivation of FTase (result in words) [2]: rapidly inactivated FTase
Structure (SMILES): CC(=O)C(=O)CC(C)CCC=C(C)C (stereo not shown) [5,9-dimethyl-8-decene-2,3-dione]

- FTase activity compared with the control ([1]; 23 μM, 120 minutes of incubation, FTase 15 nM, 4.6% DMSO): the same as the control
- inactivation of FTase (result in words) [2]: did not inactivated FTase
Structure (SMILES): CC(=O)c1ccc(-c2ccc(C(C)=O)cc2)cc1 [4,4′-diacetylbiphenyl, reference compound]

The remaining lines, values behind:

Structure (SMILES): CCC(=O)C(C)=O [2,3-pentanedione]
- FTase activity, % of the initial control value ([1]; 17 mM, approximately 30 minutes of incubation, 50 mM sodium borate, pH 7.5, FTase 15 nM, Microcon step omitted): 69%
- FTase activity, % of the initial control value ([1]; 33 mM, approximately 30 minutes of incubation, 50 mM sodium borate, pH 7.5, FTase 15 nM, Microcon step omitted): 55%
- FTase activity, % of the initial control value ([1]; 66 mM, approximately 30 minutes of incubation, 50 mM sodium borate, pH 7.5, FTase 15 nM, Microcon step omitted): 37%
- inactivation of FTase (result in words) [2]: rapidly inactivated FTase

Structure (SMILES): CCCCCCCCCCCCCCCC(=O)OC[C@H](O)[C@H]1OC(=O)C(=O)C1=O [dehydroascorbic acid 6-palmitate]
- FTase activity, % of the initial control value ([1]; 7 μM, 30 minutes of incubation, FTase 15 nM, 0.46% DMSO, Microcon step omitted): 75%
- FTase activity, % of the initial control value ([1]; 28 μM, 30 minutes of incubation, FTase 15 nM, 0.46% DMSO, Microcon step omitted): 34%
- FTase activity, % of the initial control value ([1]; 141 μM, 30 minutes of incubation, FTase 15 nM, 0.46% DMSO, Microcon step omitted): 22%
- inactivation of FTase (result in words) [2]: rapidly inactivated FTase

Structure (SMILES): CCCCCCCCCCC(=O)C=O [2-oxododecanal]
- time of incubation until FTase activity was lost ([2]; 35 mM 2-oxododecanal, 5% DMSO, data not shown): ≤ 2 min
- inactivation of FTase (result in words) [2]: rapidly inactivated FTase
